Data taken from patent US10633397B2, “Substituted polycyclic pyridone derivatives and prodrugs thereof” (priority 2015, dated 2020).

Columns and labels:
[1] = Plasma concentration after oral administration of prodrug Compound II-6; format: in vivo; conditions: after oral administration of Compound II-6 to rat under non-fasting conditions, all plasma samples
Description: FIG. 1 is a result of measuring the plasma concentration of compound III-2, after oral administration of prodrug Compound II-6, the parent compound of which is Compound III-2, to rat under non-fasting conditions.
FIG. 2 is a result of measuring the plasma concentration of compound II-6, after oral administration of prodrug Compound II-6, the parent compound of which is Compound III-2, to rat under non-fasting conditions.
FIGS. 1 and 2 show a result of measuring the plasma concentration of Compound III-2 and Compound II-6 after oral administration of prodrug Compound II-6, the parent compound of which is Compound III-2, to rat under non-fasting conditions.
Therefore, prodrug Compound II-6, the parent compound of which is Compound III-2 is found to have changed promptly to Compound III-2 in vivo after administration (see FIG. 2).

in vivo = conditions: oral vs intravenous administration, mice or SD rats, read-out: bioavailability (BA)
Protocol: Materials and Methods for Experiments to Evaluate Oral Absorption
(1) Experimental animals: mice or SD rats were used.
(2) Rearing condition: mice or SD rats were allowed free access to solid feed and sterilized tap water.
(3) Setting of dosage and grouping: Oral administration and intravenous administration were performed with the predetermined dosage. Grouping was set as below. (Dosage was changed per compound)
Oral administration 1 to 30 mg/kg (n=2 to 3)
Intravenous administration 0.5 to 10 mg/kg (n=2 to 3)
(4) Preparation of administration solutions: Oral administration was performed as solution or suspension. Intravenous administration was performed after solubilization.
(5) Routes of administration: Oral administration was performed mandatory into the stomach by oral sonde. […]
(6) Evaluation items: Blood was collected serially and concentration of a compound of the present invention in plasma was measured by LC/MS/MS.
(7) Statistical analysis: About transition of concentration of a compound of the present invention in plasma, the area under the plasma concentration versus time curve (AUC) was calculated by non-linear least-squares method program, WinNonlin (a registered trademark), and bioavailability (BA) of a compound of the present invention was calculated from AUCs of the oral administration group and the intravenous administration group. […]

In the case of COC(=O)OCOc1c2n(ccc1=O)N([C@@H]1c3ccccc3SCc3c1ccc(F)c3F)[C@@H]1COCCN1C2=O [II-6], the “concentration of Compound II-6 in plasma” value [1] is reported as “a determination limit or less” and the bioavailability (in vivo) is reported as 14.9%.
